Among the test systems are CAKI-1 renal; CCRF-CEM leukemia; MDA-MB-435; MDA-N; NCI-H522 lung; OVCAR-3 ovarian; OVCAR-5 ovarian; SK-OV-3 ovarian; UACC-257 melanoma; UO-31 renal.
Assay in all cases: inhibition of tumour cell growth, NCI panel, 48 h

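Protocol summary: plate cells (96-well), add compound at 5 concentrations, incubate 48 h, interpolate endpoints linearly. At the TGI there is no net growth.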 Some results are limits rather than exact numbers.

With `O=C(c1ccccc1)c1ccc(C(c2c(O)c3ccccc3oc2=O)c2c(O)c3ccccc3oc2=O)cc1`, the TGI is 25.3 µM with CAKI-1 renal; more than 81.2 µM with CCRF-CEM leukemia; more than 74.2 µM with MDA-MB-435; more than 71.7 µM in the test on MDA-N; 43 µM in the test with NCI-H522 lung; more than 56.6 µM in the test on OVCAR-3 ovarian. Moreover, the TGI was 51.4 µM in the test on OVCAR-5 ovarian, 38.4 µM in the test on SK-OV-3 ovarian, 49.5 µM in the test on UACC-257 melanoma and 33 µM in the test on UO-31 renal.

With `C=C(O)c1ccccc1C#Cc1ccccc1C(=O)OC`, the TGI with CAKI-1 renal, in the test on CCRF-CEM leukemia, in the test with MDA-MB-435, in the test with MDA-N, in the test on NCI-H522 lung and in the test on OVCAR-3 ovarian was more than 10 µM each time. Also, the TGI in the test with OVCAR-5 ovarian, with SK-OV-3 ovarian, in the test with UACC-257 melanoma and in the test on UO-31 renal was more than 10 µM each time.

Take `CC(C)=CCC[C@]1(C)CC[C@]2(C)C3CCC(=C(C)C)[C@@H](CCCO)[C@]3(C)CC[C@@]2(C)C1` (stereo not given in full): the TGI was more than 100 µM with CAKI-1 renal; more than 100 µM in the test with CCRF-CEM leukemia; more than 100 µM in the test with MDA-MB-435; more than 100 µM in the test on MDA-N; 37.2 µM in the test with NCI-H522 lung; more than 100 µM in the test with OVCAR-3 ovarian. The TGI with OVCAR-5 ovarian was more than 100 µM; in the test on SK-OV-3 ovarian, more than 100 µM; with UACC-257 melanoma, 77.1 µM; in the test on UO-31 renal it was 34 µM.

As for `S=c1[nH]nc(COc2ccc3c(c2)CCCC3)n1/N=C/c1ccc(Cl)cc1`, the TGI was determined as 37.2 µM in the test on CAKI-1 renal; 55.8 µM with CCRF-CEM leukemia; 39.4 µM in the test with MDA-MB-435; 33.5 µM with MDA-N; 28.9 µM in the test with NCI-H522 lung; 30.7 µM in the test on OVCAR-3 ovarian. Besides, the TGI in the test with OVCAR-5 ovarian stood at 32 µM; in the test on SK-OV-3 ovarian it was 32.4 µM; in the test on UACC-257 melanoma, 48.1 µM; in the test on UO-31 renal it was 31.4 µM.

In the case of `CCC1(C)C=Cc2c(cc(OC)c3c(=O)c4ccccc4n(C)c23)O1` (stereo not given), the TGI was 2.53 µM with CAKI-1 renal; more than 10 µM in the test with CCRF-CEM leukemia; more than 10 µM in the test with MDA-MB-435; more than 10 µM in the test on MDA-N; more than 10 µM with NCI-H522 lung; more than 10 µM in the test with OVCAR-3 ovarian. Besides, the TGI is more than 10 µM with OVCAR-5 ovarian, more than 10 µM in the test on SK-OV-3 ovarian, more than 10 µM with UACC-257 melanoma and 2.39 µM in the test with UO-31 renal.

As for `COc1ccc(/C=C2\C=Cc3ccccc32)cc1OC`, the TGI in the test on CAKI-1 renal, with CCRF-CEM leukemia, with MDA-MB-435, in the test on MDA-N, in the test with NCI-H522 lung and in the test with OVCAR-3 ovarian was more than 100 µM throughout. Also, the TGI in the test with OVCAR-5 ovarian, in the test with SK-OV-3 ovarian and with UACC-257 melanoma was more than 100 µM each time.

`CCN1CC2=C(N=c3s/c(=C\c4ccc(Cl)cc4)c(=O)n3C2c2ccc(Cl)cc2)/C(=C/c2ccc(Cl)cc2)C1` (stereo not given): the TGI with CAKI-1 renal, in the test on CCRF-CEM leukemia, in the test on MDA-MB-435, with MDA-N, in the test with NCI-H522 lung and in the test with OVCAR-3 ovarian was more than 100 µM each time. Moreover, the TGI in the test on OVCAR-5 ovarian, with SK-OV-3 ovarian, with UACC-257 melanoma and in the test on UO-31 renal was more than 100 µM each time.

`CCOC(=O)c1nc2cc(N3CCOCC3)c(F)cc2[nH]c1=O`: the TGI in the test on CAKI-1 renal, in the test on CCRF-CEM leukemia, with MDA-MB-435, in the test on MDA-N, with NCI-H522 lung and with OVCAR-3 ovarian was more than 100 µM each time. The TGI in the test on OVCAR-5 ovarian, in the test with SK-OV-3 ovarian, in the test on UACC-257 melanoma and with UO-31 renal was more than 100 µM throughout.

On to `CNc1ncnc(Sc2nc(N)nc3nc[nH]c23)c1[N+](=O)[O-]`, for which the TGI stood at 12.9 µM in the test with CAKI-1 renal; 0.892 µM in the test with CCRF-CEM leukemia; 12 µM in the test on MDA-MB-435; 14.9 µM with MDA-N; 6.76 µM with NCI-H522 lung; 12 µM with OVCAR-3 ovarian. In addition, the TGI is more than 77.4 µM with OVCAR-5 ovarian, more than 100 µM with SK-OV-3 ovarian, 13 µM in the test on UACC-257 melanoma and 13.9 µM in the test on UO-31 renal.

As to `CCOC(=O)c1cc2cc(N(C(C)=O)C(C)=O)ccc2s1`, the TGI with CAKI-1 renal was more than 100 µM; in the test with CCRF-CEM leukemia it was more than 100 µM; with MDA-MB-435, more than 100 µM; in the test on MDA-N it was more than 100 µM; in the test on NCI-H522 lung, 55.3 µM; with OVCAR-3 ovarian, more than 100 µM. Further, the TGI with OVCAR-5 ovarian was 73.8 µM; with SK-OV-3 ovarian it was more than 100 µM; in the test on UACC-257 melanoma, more than 100 µM; in the test on UO-31 renal it was more than 100 µM.

In the case of `CCOP(=O)(OCC)C(NC(=O)OCC(Cl)(Cl)Cl)n1nnc(C(=O)OC)c1C(=O)OC` (stereo not given), the TGI with CAKI-1 renal, in the test with CCRF-CEM leukemia, in the test on MDA-MB-435, with MDA-N, in the test with NCI-H522 lung and with OVCAR-3 ovarian was more than 100 µM each time. Also, the TGI in the test with SK-OV-3 ovarian, in the test on UACC-257 melanoma and in the test with UO-31 renal was more than 100 µM each time.

Take `CC(=O)N=C(N=Nc1c(O)[nH]c2ccc(C)cc12)NC(C)=O`: the TGI in the test with CAKI-1 renal, in the test on CCRF-CEM leukemia, with MDA-MB-435, in the test on MDA-N, in the test on NCI-H522 lung and in the test on OVCAR-5 ovarian was more than 100 µM in each case. Besides, the TGI in the test with SK-OV-3 ovarian, with UACC-257 melanoma and in the test on UO-31 renal was more than 100 µM in each case.

Turning to `Cc1cc2nc3n[nH]c(N)c3nc2cc1C`, the TGI in the test with CAKI-1 renal, in the test on CCRF-CEM leukemia, in the test on MDA-MB-435, with MDA-N, with NCI-H522 lung and with OVCAR-5 ovarian was more than 100 µM each time. Further, the TGI in the test with SK-OV-3 ovarian, in the test on UACC-257 melanoma and with UO-31 renal was more than 100 µM in each case.

Take `CC(=O)ON(OC(C)=O)c1ccc(C)cc1`: the TGI in the test on CAKI-1 renal, in the test with MDA-MB-435, in the test with MDA-N, with NCI-H522 lung, with OVCAR-3 ovarian and in the test with OVCAR-5 ovarian was more than 100 µM throughout. In addition, the TGI in the test with SK-OV-3 ovarian, in the test with UACC-257 melanoma and in the test with UO-31 renal was more than 100 µM in each case.

The values are drawn from PubChem BioAssay (NCI).
